Results from ChEMBL document CHEMBL3098108, “Design, synthesis and evaluation of dual pharmacology β2-adrenoceptor agonists and PDE4 inhibitors” (Bioorg Med Chem Lett, 2014).
pEC50, pIC50: −log10 of the molar value. Active and inactive are the calls of the source. No cut-off for these calls is given here.

Legend:
[1] = molecular target: Beta-2 adrenergic receptor (Cavia porcellus) (UniProt Q8K4Z4); test: Agonist activity at guinea pig trachea beta2-adrenergic receptor assessed as relaxation of histamine-induced tracheal ring contraction in presence of ICI-118551
[2] = molecular target: 3',5'-cyclic-AMP phosphodiesterase 4B (Homo sapiens, UniProt Q07343); test: Inhibition of human recombinant PDE4B2 assessed as inhibition of cAMP hydrolysis by colorimetric assay
[3] = molecular target: Beta-2 adrenergic receptor (Cavia porcellus, UniProt Q8K4Z4); test: Agonist activity at guinea pig trachea beta2-adrenergic receptor assessed as relaxation of histamine-induced tracheal ring contraction
Sequence of Beta-2 adrenergic receptor (Q8K4Z4 whole entry): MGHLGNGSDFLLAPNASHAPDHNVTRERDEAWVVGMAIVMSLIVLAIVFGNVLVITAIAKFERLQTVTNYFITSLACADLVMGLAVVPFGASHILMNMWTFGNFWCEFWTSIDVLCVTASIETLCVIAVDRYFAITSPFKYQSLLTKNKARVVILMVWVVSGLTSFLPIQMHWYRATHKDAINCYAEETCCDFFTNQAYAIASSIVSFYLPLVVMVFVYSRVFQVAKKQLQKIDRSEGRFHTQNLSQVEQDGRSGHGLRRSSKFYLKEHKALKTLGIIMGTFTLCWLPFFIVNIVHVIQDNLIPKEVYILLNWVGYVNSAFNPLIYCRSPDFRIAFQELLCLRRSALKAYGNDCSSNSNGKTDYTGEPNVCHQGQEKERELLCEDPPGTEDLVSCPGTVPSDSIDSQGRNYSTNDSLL

Sequence of 3',5'-cyclic-AMP phosphodiesterase 4B (Q07343 whole entry): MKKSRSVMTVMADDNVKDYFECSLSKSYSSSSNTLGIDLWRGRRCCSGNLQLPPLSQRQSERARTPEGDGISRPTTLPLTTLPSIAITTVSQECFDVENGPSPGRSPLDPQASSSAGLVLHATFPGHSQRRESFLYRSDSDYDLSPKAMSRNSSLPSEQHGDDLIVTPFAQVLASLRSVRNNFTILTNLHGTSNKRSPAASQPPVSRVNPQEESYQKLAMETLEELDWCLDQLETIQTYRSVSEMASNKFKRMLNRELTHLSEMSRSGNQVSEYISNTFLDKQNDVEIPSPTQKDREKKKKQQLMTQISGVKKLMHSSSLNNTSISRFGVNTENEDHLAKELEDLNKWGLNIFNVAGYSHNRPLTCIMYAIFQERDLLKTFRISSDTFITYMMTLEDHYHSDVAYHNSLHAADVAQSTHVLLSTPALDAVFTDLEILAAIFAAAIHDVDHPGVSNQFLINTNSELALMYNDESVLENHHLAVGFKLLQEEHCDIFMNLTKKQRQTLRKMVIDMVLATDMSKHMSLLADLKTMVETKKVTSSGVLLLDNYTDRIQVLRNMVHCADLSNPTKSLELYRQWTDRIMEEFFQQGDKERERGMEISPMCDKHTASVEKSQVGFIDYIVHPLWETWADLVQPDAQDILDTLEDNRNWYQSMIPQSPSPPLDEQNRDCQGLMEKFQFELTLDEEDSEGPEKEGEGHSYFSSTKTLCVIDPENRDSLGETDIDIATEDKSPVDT
Sequence of Beta-2 adrenergic receptor (Cavia porcellus) (Q8K4Z4 whole entry, looked up): as the sequence (Q8K4Z4 whole entry) above

Activity [1]	pIC50 [2]	pEC50 [3]	SMILES
Active	7.04	8.98	COc1ccc(C2=NN(CCCCCCOc3ccc(C[C@@H](C)NC[C@H](O)c4ccc(O)c(NC=O)c4)cc3)C(=O)C3CCCCC23)cc1OC (some centres undefined)
	6.98	8.30	COc1ccc(C2=NN(CCCCCCOc3ccc(CC(C)NCC(O)c4ccc(O)c(NC=O)c4)cc3)C(=O)C3CCCCC23)cc1OC (racemic)
	6.93	7.99	COc1ccc(C2=NN(CCCCOc3ccc(CC(C)NCC(O)c4ccc(O)c(NC=O)c4)cc3)C(=O)C3CCCCC23)cc1OC (centres undefined)
	6.93	7.90	COc1ccc(C2=NN(CCCCCOc3ccc(CC(C)NCC(O)c4ccc(O)c(NC=O)c4)cc3)C(=O)C3CCCCC23)cc1OC (centres undefined)
